Reference: US4145442A, “Phenoxy-hydroxypropylamines, their preparation, and method and pharmaceutical preparations for treating cardiovascular diseases” (priority 1972, dated 1979)

target: T1, β-receptors of the heart (Felis catus, UniProt Q9TST6); experiment: Intrinsic activity on heart rate in reserpinized cat; assay type: in vivo; conditions: iv, anesthetized, vagotomized, i.v., read-out: Intrinsic activity % of maximal isoprenaline heart rate
T1 construct: from tissue; host or cells: heart of the anesthetized, reserpine-pretreated, vagotomized cat (in vivo)
Method: (§1) Compounds prepared according to the examples were evaluated for intrinsic activity and blocking effect on heart rate and peripheral vasodilator response to isoprenaline in the cat. Alprenolol was used as a reference source.
(§2) Cats weighing between 1.8 and 2.8 kg were anesthetized with 39 mg/kg pentobarbital sodium, intraperitoneally. The cat had been pre-treated with reserpine, 5 mg/kg intramuscular, about 18 hours before the experiment. Bilateral vagotomy was performed before the start of the experiment.
(§3) The heart rate was recorded on an Offner cardiotachometer triggered by the EKG-complex. Mean arterial blood pressure was recorded from a carotid artery. The peripheral resistance was measured in one of the legs of the cat in the following way: The femoral artery was opened in the inguinal region and the leg was perfused by blood delivered through a sigma motor pump at constant rate. The flow resistance (the pressure) was recorded via pressure transducer connected to the catheter distally to the pump. The paw was excluded from the circulation by a tight ligature. Intravenously injected isoprenaline increased the heart rate and reduced the perfusion pressure. An isoprenaline dose giving 70-80% of the maximal chronotropic response was determined. This dose (usually 0.1 μg/kg) was then repeated with 20-minute intervals. Ten minutes before each isoprenaline injection, the tested substances were administered intravenously for two minutes, starting with a dose of 0.01 mg/kg and increasing each subsequent dose fourfold. The intrinsic effects of the test substances were determined. The dose producing 50% blockade of the isoprenaline responses was evaluated from the plotted log dose percent blockade diagrams.

T1 sequence (Q9TST6 whole entry): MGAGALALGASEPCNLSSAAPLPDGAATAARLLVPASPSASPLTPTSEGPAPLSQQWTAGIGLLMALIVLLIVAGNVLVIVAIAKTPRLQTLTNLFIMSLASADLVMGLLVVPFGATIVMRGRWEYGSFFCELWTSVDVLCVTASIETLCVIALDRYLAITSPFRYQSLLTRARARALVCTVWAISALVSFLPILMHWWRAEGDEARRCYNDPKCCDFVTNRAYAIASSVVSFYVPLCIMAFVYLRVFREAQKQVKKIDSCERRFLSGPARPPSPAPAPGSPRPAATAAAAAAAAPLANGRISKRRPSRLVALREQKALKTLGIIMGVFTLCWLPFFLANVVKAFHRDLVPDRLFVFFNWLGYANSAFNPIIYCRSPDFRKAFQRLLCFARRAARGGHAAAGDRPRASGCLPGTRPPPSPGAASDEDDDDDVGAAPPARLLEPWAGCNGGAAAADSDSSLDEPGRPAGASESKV

Row | Compound | Emax
1 | COCCc1ccc(OCC(O)CNC(C)C)c(Br)c1 (stereo not drawn) [Example 1, 1-isopropylamino-3-[2'-bromo-4'-(β-methoxyethyl)-phenoxy]-propanol-2] | 0%
2 | COCCc1ccc(OCC(O)CNC(C)C)c(Cl)c1 (stereo not drawn) [Example 2, 1-isopropylamino-3-[2'-chloro-4'-(2-methoxyethyl)phenoxy]-propanol-2] | 0%
3 | COCCc1ccc(OCC(O)CNC(C)(C)C)c(Cl)c1 (stereo not drawn) [Example 3] | 0%
4 | COCCc1ccc(OCC(O)CNC(C)C)c(COC)c1 (stereo not drawn) [Example 4, 1-isopropylamino-3-[2'-methoxymethyl-4'-(2-methoxyethyl)phenoxy]-propanol-2] | 5%
5 | COCCCc1ccc(OCC(O)CNC(C)C)c(Cl)c1 (stereo not drawn) [Example 5, 1-isopropylamino-3-[2'-chloro-4'-(3-methoxy-n-propyl)phenoxy]-propanol-2] | 0%
6 | COCCCc1ccc(OCC(O)CNC(C)C)c(Br)c1 (stereo not drawn) [Example 6, 1-isopropylamino-3-[2'-bromo-4'-(3-methoxypropyl)phenoxy]-propanol-2] | 0%
7 | COCc1ccc(OCC(O)CNC(C)C)c(OC)c1 (stereo not drawn) [Example 7, 1-isopropyalmino-3-[2'-methoxymethylphenoxy]-propanol-2] | 1%
8 | C=CCc1cc(CCOC)ccc1OCC(O)CNC(C)C (stereo not drawn) [Example 8, 1-isopropylamino-3-[2'-allyl-4'-(2-methoxyethyl)-phenoxyl]propanol-2] | 0%
9 | CCCc1cc(CCOC)ccc1OCC(O)CNC(C)C (stereo not drawn) [Example 9, 1-isopropylamino-3-[2'-propyl-4'-(2-methoxyethyl)phenoxy]-propanol-2] | 0%
10 | C=CCc1cc(CCCOC)ccc1OCC(O)CNC(C)C (stereo not drawn) [Example 10, 1-isopropylamino-3-[2'-allyl-4'-(3-methoxy-n-propyl)phenoxy]-propanol-2] | 0%
11 | CSCCc1ccc(OCC(O)CNC(C)C)c(F)c1 (stereo not drawn) [Example 11, 1-isopropylamino-3-[2'-fluoro-4'-(2-methylmercaptoethyl)phenoxy]-propanol-2xHCl] | 0%
12 | COCCCc1ccc(OCC(O)CNC(C)C)c(OC)c1 (stereo not drawn) [Example 12, 1-isopropylamino-3-[2'-methoxy-4'-(3-methoxy-n-propyl)phenoxy]-propanol-2xHCl] | 0%
13 | COCCc1ccc(OCC(O)CNC(C)C)c(F)c1 (stereo not drawn) [Example 13, 1-isopropylamino-3-[2'-fluoro-4'-(2-methoxyethyl)phenoxy]-propanol-2xHCl] | 0%

target: T1, β-receptors of the heart; experiment: β-blockade of isoprenaline heart rate response in reserpinized cat; assay type: in vivo; conditions: cat, iv, read-out: β-blockade heart rate ED50
Method: as §1, §2, §3

Row | Compound | ED50
14 | COCCCc1ccc(OCC(O)CNC(C)C)c(Br)c1 (stereo not drawn) [Example 6, 1-isopropylamino-3-[2'-bromo-4'-(3-methoxypropyl)phenoxy]-propanol-2] | 0.4 mg/kg
15 | COCCCc1ccc(OCC(O)CNC(C)C)c(OC)c1 (stereo not drawn) [Example 12, 1-isopropylamino-3-[2'-methoxy-4'-(3-methoxy-n-propyl)phenoxy]-propanol-2xHCl] | 0.4 mg/kg

same assay, conditions: iv; reserpinized cat, i.v., 50% blockade of isoprenaline (usually 0.1 μg/kg) response; read-out: β-blockade heart rate ED50

Row | Compound | ED50
16 | COCCc1ccc(OCC(O)CNC(C)C)c(Br)c1 (stereo not drawn) [Example 1, 1-isopropylamino-3-[2'-bromo-4'-(β-methoxyethyl)-phenoxy]-propanol-2] | 0.03 mg/kg
17 | COCCc1ccc(OCC(O)CNC(C)C)c(Cl)c1 (stereo not drawn) [Example 2, 1-isopropylamino-3-[2'-chloro-4'-(2-methoxyethyl)phenoxy]-propanol-2] | 0.1 mg/kg
18 | COCCc1ccc(OCC(O)CNC(C)(C)C)c(Cl)c1 (stereo not drawn) [Example 3] | 0.03 mg/kg
19 | COCCc1ccc(OCC(O)CNC(C)C)c(COC)c1 (stereo not drawn) [Example 4, 1-isopropylamino-3-[2'-methoxymethyl-4'-(2-methoxyethyl)phenoxy]-propanol-2] | 0.2 mg/kg
20 | COCCCc1ccc(OCC(O)CNC(C)C)c(Cl)c1 (stereo not drawn) [Example 5, 1-isopropylamino-3-[2'-chloro-4'-(3-methoxy-n-propyl)phenoxy]-propanol-2] | 0.3 mg/kg
21 | COCc1ccc(OCC(O)CNC(C)C)c(OC)c1 (stereo not drawn) [Example 7, 1-isopropyalmino-3-[2'-methoxymethylphenoxy]-propanol-2] | 0.6 mg/kg
22 | C=CCc1cc(CCOC)ccc1OCC(O)CNC(C)C (stereo not drawn) [Example 8, 1-isopropylamino-3-[2'-allyl-4'-(2-methoxyethyl)-phenoxyl]propanol-2] | 0.1 mg/kg
23 | CCCc1cc(CCOC)ccc1OCC(O)CNC(C)C (stereo not drawn) [Example 9, 1-isopropylamino-3-[2'-propyl-4'-(2-methoxyethyl)phenoxy]-propanol-2] | 0.1 mg/kg
24 | C=CCc1cc(CCCOC)ccc1OCC(O)CNC(C)C (stereo not drawn) [Example 10, 1-isopropylamino-3-[2'-allyl-4'-(3-methoxy-n-propyl)phenoxy]-propanol-2] | 0.3 mg/kg
25 | CSCCc1ccc(OCC(O)CNC(C)C)c(F)c1 (stereo not drawn) [Example 11, 1-isopropylamino-3-[2'-fluoro-4'-(2-methylmercaptoethyl)phenoxy]-propanol-2xHCl] | 0.2 mg/kg
26 | COCCc1ccc(OCC(O)CNC(C)C)c(F)c1 (stereo not drawn) [Example 13, 1-isopropylamino-3-[2'-fluoro-4'-(2-methoxyethyl)phenoxy]-propanol-2xHCl] | 0.05 mg/kg

target: T2, β2-receptors of the smooth muscles (Felis catus, UniProt Q9TST5); experiment: β-blockade of isoprenaline peripheral vasodilator response (peripheral vascular resistance) in reserpinized cat; assay type: in vivo; conditions: iv, 50% blockade of isoprenaline (usually 0.1 μg/kg) response
T2 construct: from tissue; host or cells: vascular bed of the blood-perfused leg of the anesthetized cat, paw excluded (in vivo)
Method: as §1, §2, §3

T2 sequence (Q9TST5 whole entry, the tested form may be a part): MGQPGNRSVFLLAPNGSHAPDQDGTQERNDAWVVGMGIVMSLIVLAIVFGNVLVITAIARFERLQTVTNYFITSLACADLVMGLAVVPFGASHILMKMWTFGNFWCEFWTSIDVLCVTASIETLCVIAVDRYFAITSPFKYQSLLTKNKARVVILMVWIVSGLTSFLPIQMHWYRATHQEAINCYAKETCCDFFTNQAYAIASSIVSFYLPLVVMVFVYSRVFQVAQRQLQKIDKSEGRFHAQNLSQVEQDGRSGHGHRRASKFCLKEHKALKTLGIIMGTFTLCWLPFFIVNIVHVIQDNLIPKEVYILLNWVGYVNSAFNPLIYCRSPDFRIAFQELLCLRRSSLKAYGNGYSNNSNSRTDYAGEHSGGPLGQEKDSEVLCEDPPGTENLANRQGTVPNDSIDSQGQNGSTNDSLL

Row | Compound | ED50
27 | COCCc1ccc(OCC(O)CNC(C)C)c(Br)c1 (stereo not drawn) [Example 1, 1-isopropylamino-3-[2'-bromo-4'-(β-methoxyethyl)-phenoxy]-propanol-2] | 1 mg/kg
28 | COCCc1ccc(OCC(O)CNC(C)C)c(Cl)c1 (stereo not drawn) [Example 2, 1-isopropylamino-3-[2'-chloro-4'-(2-methoxyethyl)phenoxy]-propanol-2] | 3 mg/kg
29 | COCCc1ccc(OCC(O)CNC(C)(C)C)c(Cl)c1 (stereo not drawn) [Example 3] | 1 mg/kg
30 | COCCc1ccc(OCC(O)CNC(C)C)c(COC)c1 (stereo not drawn) [Example 4, 1-isopropylamino-3-[2'-methoxymethyl-4'-(2-methoxyethyl)phenoxy]-propanol-2] | 5 mg/kg
31 | COCCCc1ccc(OCC(O)CNC(C)C)c(Cl)c1 (stereo not drawn) [Example 5, 1-isopropylamino-3-[2'-chloro-4'-(3-methoxy-n-propyl)phenoxy]-propanol-2] | 2 mg/kg
32 | COCCCc1ccc(OCC(O)CNC(C)C)c(Br)c1 (stereo not drawn) [Example 6, 1-isopropylamino-3-[2'-bromo-4'-(3-methoxypropyl)phenoxy]-propanol-2] | 1.5 mg/kg
33 | COCc1ccc(OCC(O)CNC(C)C)c(OC)c1 (stereo not drawn) [Example 7, 1-isopropyalmino-3-[2'-methoxymethylphenoxy]-propanol-2] | 3 mg/kg
34 | C=CCc1cc(CCOC)ccc1OCC(O)CNC(C)C (stereo not drawn) [Example 8, 1-isopropylamino-3-[2'-allyl-4'-(2-methoxyethyl)-phenoxyl]propanol-2] | 0.8 mg/kg
35 | CCCc1cc(CCOC)ccc1OCC(O)CNC(C)C (stereo not drawn) [Example 9, 1-isopropylamino-3-[2'-propyl-4'-(2-methoxyethyl)phenoxy]-propanol-2] | 0.5 mg/kg
36 | C=CCc1cc(CCCOC)ccc1OCC(O)CNC(C)C (stereo not drawn) [Example 10, 1-isopropylamino-3-[2'-allyl-4'-(3-methoxy-n-propyl)phenoxy]-propanol-2] | 1 mg/kg
37 | CSCCc1ccc(OCC(O)CNC(C)C)c(F)c1 (stereo not drawn) [Example 11, 1-isopropylamino-3-[2'-fluoro-4'-(2-methylmercaptoethyl)phenoxy]-propanol-2xHCl] | 1 mg/kg
38 | COCCCc1ccc(OCC(O)CNC(C)C)c(OC)c1 (stereo not drawn) [Example 12, 1-isopropylamino-3-[2'-methoxy-4'-(3-methoxy-n-propyl)phenoxy]-propanol-2xHCl] | 5 mg/kg
39 | COCCc1ccc(OCC(O)CNC(C)C)c(F)c1 (stereo not drawn) [Example 13, 1-isopropylamino-3-[2'-fluoro-4'-(2-methoxyethyl)phenoxy]-propanol-2xHCl] | 2.7 mg/kg
